The term MIC denotes the lowest concentration found to suppress growth.

Assay [1] has as its system Escherichia coli. In words: Drug resistance, ratio of MIC for Escherichia coli ATCC 25922 after 30 passages to MIC for Escherichia coli ATCC 25922 […] after initial exposure. It counts as functional.
In assay [2] the test system is Escherichia coli. In words: Antimicrobial activity against Escherichia coli ATCC 25922 assessed as reduction in microbial growth by CLSI based broth microdilution method. It counts as functional. For orientation: In broth dilution the organism is exposed to a series of concentrations in liquid medium.
In assay [3] the test system is Escherichia coli. As to the kind of experiment: Antimicrobial activity against Escherichia coli UB 1005 assessed as reduction in microbial growth by CLSI based broth microdilution method. It counts as functional.
In assay [4] the test system is Escherichia coli. As to the kind of experiment: Antimicrobial activity against Escherichia coli K88 assessed as reduction in microbial growth by CLSI based broth microdilution method. It counts as functional.
Assay [5] relates to Escherichia coli. As to the kind of experiment: Antimicrobial activity against Escherichia coli K99 assessed as reduction in microbial growth by CLSI based broth microdilution method. It counts as functional.
For assay [6], the system named is Escherichia coli. As to the kind of experiment: Antimicrobial activity against Escherichia coli 078 assessed as reduction in microbial growth by CLSI based broth microdilution method. It counts as functional.
The test system of assay [7] is Salmonella typhimurium. In words: Antimicrobial activity against Salmonella typhimurium ATCC 14028 assessed as reduction in microbial growth by CLSI based broth microdilution method. It counts as functional, Salmonella enterica subsp. enterica serovar Typhimurium. To be noted: Salmonella enterica.
The test system of assay [8] is Salmonella typhimurium. As to the kind of experiment: Antimicrobial activity against Salmonella typhimurium ATCC 7731 assessed as reduction in microbial growth by CLSI based broth microdilution method. It counts as functional, Salmonella enterica subsp. enterica serovar Typhimurium. To be noted: Salmonella enterica.
Assay [9] is described as follows: Antimicrobial activity against Salmonella enterica subsp. enterica serovar Pullorum ATCC 7913 assessed as reduction in microbial growth by CLSI based broth microdilution method. It counts as functional.
The subject of another assay is Pseudomonas aeruginosa. In words: Antimicrobial activity against Pseudomonas aeruginosa ATCC 27853 assessed as reduction in microbial growth by CLSI based broth microdilution method. It counts as functional.
The test system of assay [10] is Staphylococcus aureus. As to the kind of experiment: Antimicrobial activity against Staphylococcus aureus ATCC 25923 assessed as reduction in microbial growth by CLSI based broth microdilution method. It counts as functional.
Assay [11] relates to Staphylococcus aureus. As to the kind of experiment: Antimicrobial activity against Staphylococcus aureus ATCC 29213 assessed as reduction in microbial growth by CLSI based broth microdilution method. It counts as functional.
Assay [12] concerns Staphylococcus epidermidis. In words: Antimicrobial activity against Staphylococcus epidermidis ATCC 12228 assessed as reduction in microbial growth by CLSI based broth microdilution method. It counts as functional.
Assay [13] has as its system Staphylococcus aureus. In words: Antimicrobial activity against Staphylococcus aureus 43300 assessed as reduction in microbial growth by CLSI based broth microdilution method. It counts as functional.
The next assay deals with Enterococcus faecalis. As to the kind of experiment: Antimicrobial activity against Enterococcus faecalis ATCC 29212 assessed as reduction in microbial growth by CLSI based broth microdilution method. It counts as functional.

In the case of `O=C(O)c1cn(C2CC2)c2cc(N3CCNCC3)c(F)cc2c1=O` [CIPROFLOXACIN], in the assay with Escherichia coli [1], the Ratio is 2.
For `C=C(C)C1CC=C(C=O)CC1` (stereo not given) [PERILLALDEHYDE], the MIC in the assay with Escherichia coli [2] stood at 16400 µg/mL; with Escherichia coli [3], 16400 µg/mL; in the assay on Escherichia coli [4], 8190 µg/mL; in the assay with Escherichia coli [5], 16400 µg/mL; with Escherichia coli [6], 16400 µg/mL; with Salmonella typhimurium [7], 16400 µg/mL. Besides, the MIC with Salmonella typhimurium [8] turned out to be 16400 µg/mL; in assay [9], 16400 µg/mL; in the assay on Pseudomonas aeruginosa, 1230 µg/mL; in the assay on Staphylococcus aureus [10], 1230 µg/mL; in the assay on Staphylococcus aureus [11], 2050 µg/mL; in [12], 256 µg/mL. Also, the MIC in the assay on Staphylococcus aureus [13] and with Enterococcus faecalis was 512 µg/mL throughout.
For the compound `CC(C)=CCC/C(C)=C/C=O` [CITRAL], the MIC worked out at 8190 µg/mL in the assay with Escherichia coli [2]; 16400 µg/mL in the assay on Escherichia coli [3]; 16400 µg/mL with Escherichia coli [4]; 8190 µg/mL in the assay with Escherichia coli [5]; 8190 µg/mL in the assay with Escherichia coli [6]; 8190 µg/mL with Salmonella typhimurium [7]. Besides, the MIC in the assay with Salmonella typhimurium [8] was found to be 8190 µg/mL; in assay [9], 8190 µg/mL; in the assay on Pseudomonas aeruginosa it was 4100 µg/mL; in the assay on Staphylococcus aureus [10], 1020 µg/mL; in the assay with Staphylococcus aureus [11] it was 1020 µg/mL; in [12] it was 4100 µg/mL. Besides, the MIC with Staphylococcus aureus [13] is 1020 µg/mL; with Enterococcus faecalis, 4100 µg/mL.
For `CC(C)=CCCC(C)CC=O` (stereo not given), the MIC with Escherichia coli [2] is 16400 µg/mL; with Escherichia coli [3], 16400 µg/mL; in the assay on Escherichia coli [4], 32800 µg/mL; with Escherichia coli [5] it was 32800 µg/mL; with Escherichia coli [6], 32800 µg/mL; in the assay with Salmonella typhimurium [7], 32800 µg/mL. For the same compound, the MIC turned out to be 32800 µg/mL with Salmonella typhimurium [8]; 32800 µg/mL in assay [9]; 16400 µg/mL in the assay on Pseudomonas aeruginosa; 16400 µg/mL in the assay on Staphylococcus aureus [10]; 4100 µg/mL in the assay with Staphylococcus aureus [11]; 16400 µg/mL in [12]. Besides, the values for the MIC in the assay on Staphylococcus aureus [13] and in the assay on Enterococcus faecalis were 4100 µg/mL and 1020 µg/mL, respectively.
With `Cc1ccc(C(C)C)c(O)c1` [THYMOL], the MIC with Escherichia coli [2] stood at 256 µg/mL; with Escherichia coli [3], 256 µg/mL; with Escherichia coli [4] it was 128 µg/mL; in the assay on Escherichia coli [5], 256 µg/mL; in the assay with Escherichia coli [6], 64 µg/mL; with Salmonella typhimurium [7], 256 µg/mL. In addition, the MIC stood at 128 µg/mL in the assay with Salmonella typhimurium [8]; 256 µg/mL in assay [9]; 256 µg/mL in the assay with Pseudomonas aeruginosa; 256 µg/mL with Staphylococcus aureus [10]; 256 µg/mL in the assay with Staphylococcus aureus [11]; 128 µg/mL in [12]. For the same compound, the MIC in the assay with Staphylococcus aureus [13] and in the assay on Enterococcus faecalis was 256 µg/mL throughout.
On to `Cc1ccc(C(C)C)cc1O` [CARVACROL], for which the MIC with Escherichia coli [2] was 256 µg/mL; with Escherichia coli [3], 256 µg/mL; in the assay on Escherichia coli [4], 256 µg/mL; in the assay on Escherichia coli [5], 128 µg/mL; in the assay with Escherichia coli [6], 128 µg/mL; in the assay with Salmonella typhimurium [7], 128 µg/mL. For the same compound, the minimum inhibitory concentration (MIC) (in the assay on Salmonella typhimurium [8]; in [9]; in the assay on Pseudomonas aeruginosa; in the assay with Staphylococcus aureus [10]; in the assay with Staphylococcus aureus [11]; in [12]) was 128 µg/mL throughout. Besides, the MIC in the assay with Staphylococcus aureus [13] and in the assay with Enterococcus faecalis was 256 µg/mL each time.
As to `CC(C)c1ccc(C=O)cc1` [CUMINALDEHYDE], the MIC in the assay on Escherichia coli [2] was 8190 µg/mL; in the assay with Escherichia coli [3] it was 16400 µg/mL; in the assay on Escherichia coli [4], 16400 µg/mL; in the assay with Escherichia coli [5], 8190 µg/mL; in the assay on Escherichia coli [6], 16400 µg/mL; in the assay on Salmonella typhimurium [7], 8190 µg/mL. Also, the MIC worked out at 8190 µg/mL with Salmonella typhimurium [8]; 8190 µg/mL in [9]; 8190 µg/mL in the assay with Pseudomonas aeruginosa; 8190 µg/mL in the assay with Staphylococcus aureus [10]; 4100 µg/mL in the assay with Staphylococcus aureus [11]; 8190 µg/mL in assay [12]. In addition, the MIC in the assay on Staphylococcus aureus [13] and in the assay with Enterococcus faecalis was 2050 µg/mL each time.

The record behind these values is ChEMBL document CHEMBL6087462, “Cuminaldehyde Potentiates Antiproteolytic Peptide Efficacy via Parallel Pathways of Enhanced Inner Membrane-Damaging Activity and Inhibition of Bacterial Energy Metabolism” (J Med Chem, 2025).
